Patent US11236357B2, “Methods of obtaining androecious cucurbit plants” (INSTITUT NATIONAL DE LA RECHERCHE AGRONOMIQUE (INRA), priority 2012, dated 2022)

What was measured:
[1] = biological target: Cucumis melo ACS8 (1-aminocyclopropane-1-carboxylate synthase 8), CmACS8, wild, SEQ ID No 12 (Cucumis melo, UniProt A0A0S2C3P7); experiment: Transforming activity of methionine S-adenosyl into aminocyclopropane carboxylate (MTA formation at 265 nm); type: biochemical; settings: pH 8.5, 25° C.
Procedure: (§1) Dosing the Transforming Activity of Methionine S-adenosyl into Aminocyclopropane Carboxylate by the 1-aminocyclopropane-1-carboxylate Synthase 8 (ACS8)
(§2) The enzymatic activity of the ACS8 is measured in vitro by following, by 265-nm spectrophotometry, the formation of 5′-methylthioadenosine (MTA) after involving methionine S-adenosyl, deaminase and different PLP concentrations (pyridoxal 5′-phosphate).
(§3) The bacterial strain Escherichia coli BL21(DE3)pLYSS is used for the expression of the enzyme. The cloning vector used is the plasmid pET15b (NOVAGEN) which carries the promoter T7 and comprises resistance to ampicillin. S-adenosyl Methionine (SAM), Pyridoxal 5′phosphate (PLP) and 5′Adenylic Acid Deaminase of Aspergillus (deaminase) are available from the SIGMA company.
(§4) These bacteria Escherichia coli BL21(DE3)pLYSS transformed with the construct carrying the 1-aminocyclopropane-1-carboxylate synthase 8 (ACS8) are incubated in 25 ml LURIA-BERTANI medium (tryptone 10 g/L, yeast extract 5 g/L, NaCl 10 g/L) added with ampicillin and chloramphenicol (50 μg/ml each) overnight at 37° C. This pre-culture is used to inoculate 2 litres of the same medium added with ampicillin (50 μg/ml) and the cells are cultivated at 37° C. in a stirred incubator (180 rpm) up to 0.6 Optical Density (DO=600 nm). IPTG is added (0.5 mM) so as to induce the protein expression during a new 5-hour culture phase at 25° C. Cells are centrifuged and kept overnight at −45° C. Cells are then re-suspended in 15 ml TrisNaCl (50 mM, pH7.9, 500 mM, respectively) then subjected to ice sonication in the presence of a protease inhibitor (phenylmethanesulfonyl fluoride), leupeptin, pepstatin and aprotinin, 10 μg/ml each). The cellular debris are removed during a new centrifugation step at 13,000 g during 15 minutes and the supernatant is immediately used for enzymatic purification.
(§5) Due to the presence of a Histidine tag associated with each of the ACS8, the latter are purified by using a nickel column (Ni-IDA 15 ml) previously balanced with TRIS at PH8 and NaCl (500 mM). After passing the solution containing recombinant ACS8 to be purified, the column is then washed with TRIS at PH8 (50 mM) and NaCl (500 mM) added with imidazole (10 mM) until no protein can be detected at the output any longer. The ACS8 are then eluted with the same buffer solution added with imidazole at 100 mM, then dialysed (KPhos 50 mM á PH8.5) before concentration (MILLIPORE AMICON ULTRA DEVICE, 5000 MWC0). The concentrated fraction (20 mg/ml) of ACS8 is aliquoted and stored with glycerol at −45° C. The purification of protein is followed by capillary electrophoresis (EXPERION DEVICE—BIO RAD) with a PRO260 chip.

[2] = biological target: Cucumis melo ACS8 variant Cmacs8_S295F (S295→F), SEQ ID No 18 (Cucumis melo, UniProt A0A0S2C3P7, S295F); experiment: as above; type: biochemical; settings: pH 8.5, 25° C.
Procedure: as §1, §2, §3, §4, §5

[3] = biological target: Cucumis melo ACS8 variant Cmacs8_G72E (G72E), SEQ ID not listed (Cucumis melo, UniProt A0A0S2C3P7, G72E); experiment: as above; type: biochemical; settings: pH 8.5, 25° C.
Procedure: as §1, §2, §3, §4, §5

[4] = biological target: T1, Cucumis sativus ACS8 (1-aminocyclopropane-1-carboxylate synthase 8), CsACS8, wild, SEQ ID No 3 (Cucumis sativus, UniProt A0A0A0LKW1); experiment: as above; type: biochemical; settings: pH 8.5, 25° C.
T1 construct: N-terminus MASLSSKASHDSHGQNSS
T1 sequence (A0A0A0LKW1 1-440): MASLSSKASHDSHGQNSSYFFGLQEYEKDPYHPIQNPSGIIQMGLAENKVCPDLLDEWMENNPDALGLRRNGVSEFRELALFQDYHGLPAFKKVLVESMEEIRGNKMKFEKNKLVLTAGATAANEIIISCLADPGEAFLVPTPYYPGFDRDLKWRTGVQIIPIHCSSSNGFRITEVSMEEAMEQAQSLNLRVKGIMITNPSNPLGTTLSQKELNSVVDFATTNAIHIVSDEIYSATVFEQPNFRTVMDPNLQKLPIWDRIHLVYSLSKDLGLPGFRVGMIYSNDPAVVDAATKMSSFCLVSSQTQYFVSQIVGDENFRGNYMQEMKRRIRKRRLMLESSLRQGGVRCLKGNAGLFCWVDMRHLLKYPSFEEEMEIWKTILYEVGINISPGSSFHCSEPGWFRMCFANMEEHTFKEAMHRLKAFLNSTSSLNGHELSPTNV
Procedure: as §1, §2, §3, §4, §5

[5] = biological target: Cucumis melo ACS8 variant Cmacs8_L45F (L45→F), SEQ ID No 15 (Cucumis melo, UniProt A0A0S2C3P7, L45F); type: biochemical; settings: PLP 5 μm; pH 8.5, 25° C.
Procedure: as §1, §2
as §3, with “company. […]” for “company.”
Due to the presence of a Histidine tag associated with each of the ACS8, the latter are purified by using a nickel column (Ni-IDA 15 ml) previously balanced with TRIS at PH8 and NaCl (500 mM). After passing the solution containing recombinant ACS8 to be purified, the column is then washed with TRIS at PH8 (50 mM) and NaCl (500 mM) added with imidazole (10 mM) until no protein can be detected at the output any longer. […]

[6] = system: androecious plants (cucurbitaceae); experiment: Induction of female flowers in androecious plants by ethrel; type: in vivo; settings: androecious plants treated with ethrel
Source text: The inventors wished to study the transmission of the androecious phenotype from one generation to the other. However, due to the nature of the plants, it is obviously impossible to fecundate an androecious plant with itself or another androecious plant.
The inventors have then treated the plants with ethrel, a growth regulator known for inducing female flowers in cucurbitaceae. […] The seeds derived from this fruit have been planted to produce plants which phenotype is androecious: the androecious phenotype of the present invention is thus heritable.

monoecious melon plants = settings: monoecious plants treated by ethrel; prior art; cited from earlier work

Sequence of Cucumis melo ACS8 (1-aminocyclopropane-1-carboxylate synthase 8), CmACS8, wild, SEQ ID No 12 (A0A0S2C3P7 1-440): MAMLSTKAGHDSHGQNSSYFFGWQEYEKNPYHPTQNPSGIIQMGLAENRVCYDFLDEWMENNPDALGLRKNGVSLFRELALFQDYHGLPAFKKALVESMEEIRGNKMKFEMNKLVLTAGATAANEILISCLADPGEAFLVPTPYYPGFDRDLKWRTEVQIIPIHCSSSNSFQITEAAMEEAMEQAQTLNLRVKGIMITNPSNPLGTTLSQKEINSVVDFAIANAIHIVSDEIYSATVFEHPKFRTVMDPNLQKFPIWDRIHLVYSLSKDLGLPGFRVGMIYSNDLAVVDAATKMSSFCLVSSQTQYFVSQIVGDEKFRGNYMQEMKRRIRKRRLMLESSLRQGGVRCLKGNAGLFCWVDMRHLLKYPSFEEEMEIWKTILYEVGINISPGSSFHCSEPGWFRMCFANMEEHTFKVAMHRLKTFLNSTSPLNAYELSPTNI
Sequence of Cucumis melo ACS8 variant Cmacs8_G72E (G72E), SEQ ID not listed (A0A0S2C3P7 entry or part of it G72E): as the sequence (A0A0S2C3P7 1-440) above, with G72E counted along it
Sequence of Cucumis melo ACS8 variant Cmacs8_S295F (S295→F), SEQ ID No 18 (A0A0S2C3P7 entry or part of it S295F): as the sequence (A0A0S2C3P7 1-440) above, with S295F counted along it
Sequence of Cucumis melo ACS8 variant Cmacs8_L45F (L45→F), SEQ ID No 15 (A0A0S2C3P7 entry or part of it L45F): as the sequence (A0A0S2C3P7 1-440) above, with L45F counted along it

SMILES: C[S+](CC[C@H](N)C(=O)[O-])C[C@H]1O[C@@H](n2cnc3c(N)ncnc32)[C@H](O)[C@@H]1O (some centres unmarked) [S-adenosyl Methionine]
- Km ([1]; PLP 5 μm): 20 ± 5 µM
- Km ([1]; PLP 100 μm): 20 ± 5 µM
- Km ([2]; PLP 5 μm): 16 ± 5 µM
- Km ([2]; PLP 100 μm): 15 ± 5 µM
- Km ([3]; PLP 5 μm): 17 ± 5 µM
- Km ([3]; PLP 100 μm): 15 ± 5 µM
- Km ([4]; PLP 5 μm): 20 ± 6 µM
- Km ([4]; PLP 100 μm): 25 ± 6 µM
- Km [5]: 23 ± 4 µM

SMILES: O=P(O)(O)CCCl [ethrel]
- production of female flowers after treatment [6]: briefly produced female flowers
- effect on male flowers (monoecious melon plants): temporary disappearance of male flowers
